Assays:
Assay type in all cases: functional
Mus musculus [1] = assay: Analgesic activity in mouse assessed as decrease in acetic acid-induced writhing at 100 mg/kg, po administered 30 mins before acetic acid challenge measured after 1 hr; design: scale not given: the % may be the effect or the level left
Rattus norvegicus [2] = assay: Antiinflammatory activity against carrageenan-induced paw edema in albino rat at 100 mg/kg, po administered 30 mins before carrageenan challenge measured after 1 to 3 hrs
Mus musculus [3] = assay: Analgesic activity in mouse assessed as decrease in acetic acid-induced writhing at 50 mg/kg, po administered 30 mins before acetic acid challenge measured after 1 hr; design: scale not given: the % may be the effect or the level left
Rattus norvegicus [4] = assay: Antiinflammatory activity against carrageenan-induced paw edema in albino rat at 50 mg/kg, po administered 30 mins before carrageenan challenge measured after 1 to 3 hrs
Rattus norvegicus [5] = assay: Antiinflammatory activity against carrageenan-induced paw edema in albino rat at 25 mg/kg, po administered 30 mins before carrageenan challenge measured after 1 to 3 hrs
Mus musculus [6] = assay: Analgesic activity in mouse assessed as decrease in acetic acid-induced writhing at 25 mg/kg, po administered 30 mins before acetic acid challenge measured after 1 hr; design: scale not given: the % may be the effect or the level left

| Compound | Activity (Mus musculus [1]) [%] | Activity (Rattus norvegicus [2]) [%] | Activity (Mus musculus [3]) [%] | Activity (Rattus norvegicus [4]) [%] | Activity (Rattus norvegicus [5]) [%] | Activity (Mus musculus [6]) [%] |
| --- | --- | --- | --- | --- | --- | --- |
| C/N=C(/NNS(=O)(=O)c1ccc(C)cc1)c1ccccn1 | 75 | 12 |  |  |  |  |
| COc1ccc(S(=O)(=O)NN2C(=O)C(=O)N=C2c2cnccn2)cc1 |  |  | 12 | 13 |  |  |
| C/N=C(/NNS(=O)(=O)c1ccc(C)cc1)c1ccncc1 | 33 | 56 | 17 | 44 | 27 | 9 |
| C/N=C(/NNS(=O)(=O)c1ccc(OC)cc1)c1ccccn1 |  |  | 20 | 20 |  |  |
| C/N=C(/NNS(=O)(=O)c1ccccc1)c1cnccn1 |  |  | 11 | 11 |  |  |
| C/N=C(/NNS(=O)(=O)c1ccc(OC)cc1)c1cnccn1 |  |  | 16 | 20 |  |  |
| COc1ccc(S(=O)(=O)NN2C(=O)C(=O)N=C2c2ccncc2)cc1 | 75 | 34 |  |  |  |  |
| Cc1ccc(S(=O)(=O)NN2C(=O)C(=O)N=C2c2ccccn2)cc1 |  |  | 60 | 31 |  |  |
| CCCCC1C(=O)N(c2ccccc2)N(c2ccccc2)C1=O [PHENYLBUTAZONE] | 58 | 58 | 40 | 37 | 19 | 24 |
| C/N=C(/NNS(=O)(=O)c1ccc(OC)cc1)c1ccncc1 |  |  | 13 | 21 |  |  |
| O=C1N=C(c2ccncc2)N(NS(=O)(=O)c2ccccc2)C1=O |  |  | 60 | 37 |  |  |
| C/N=C(/NNS(=O)(=O)c1ccccc1)c1ccncc1 |  |  | 7 | 16 |  |  |
| O=C1N=C(c2cnccn2)N(NS(=O)(=O)c2ccccc2)C1=O |  |  | 30 | 25 |  |  |
| COc1ccc(S(=O)(=O)NN2C(=O)C(=O)N=C2c2ccccn2)cc1 |  |  | 18 | 20 |  |  |

From ChEMBL document CHEMBL1154431, “Synthesis of biologically active N-methyl derivatives of amidines and cyclized five-membered products of amidines with oxalyl chloride” (2008)
